From US9914730B2, “Azaquinazoline inhibitors of Atypical protein Kinase C” (Ignyta, Inc., priority 2012, dated 2018)
pIC50: −log10 of the molar value.

Molecular target: T1, full-length human PKCι (Homo sapiens, UniProt P41743)
T1 construct: Recombinant, full-length human PKCι expressed in Sf21 insect cells is also commercially available; purchased; host or cells: Sf21 insect cells
T1 sequence (P41743 1-596): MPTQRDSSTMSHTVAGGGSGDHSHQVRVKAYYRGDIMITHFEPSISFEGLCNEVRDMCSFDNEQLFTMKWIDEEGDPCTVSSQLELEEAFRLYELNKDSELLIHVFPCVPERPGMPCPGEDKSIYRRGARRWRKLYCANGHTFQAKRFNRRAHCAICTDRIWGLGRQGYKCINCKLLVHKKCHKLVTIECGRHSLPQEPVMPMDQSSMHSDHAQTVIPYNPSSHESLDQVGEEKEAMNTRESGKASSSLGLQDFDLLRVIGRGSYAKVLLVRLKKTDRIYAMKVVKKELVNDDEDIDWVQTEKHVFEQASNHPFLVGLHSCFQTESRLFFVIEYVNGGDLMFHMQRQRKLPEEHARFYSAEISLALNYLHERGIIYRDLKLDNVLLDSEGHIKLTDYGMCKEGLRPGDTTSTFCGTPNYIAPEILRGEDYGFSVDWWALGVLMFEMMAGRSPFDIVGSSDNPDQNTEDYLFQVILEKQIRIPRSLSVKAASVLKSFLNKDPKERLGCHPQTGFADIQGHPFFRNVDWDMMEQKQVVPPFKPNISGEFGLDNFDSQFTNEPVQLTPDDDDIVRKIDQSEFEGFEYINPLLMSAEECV
Assay: PKCι IC50 IMAP assay, full-length PKCι at 150 μM ATP
Type: biochemical
Details: read-out: IC50 in IMAP assay against full length PKCi at 150 μM ATP
Summary of the method: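 Full-length human PKCι from Sf21 cells, typically 15 pM, with 100 nM 5FAM-PKCε pseudosubstrate peptide and 150 μM ATP (5× apparent KM), 60 min at room temperature, 4% DMSO. IMAP fluorescence polarisation read-out; inhibition normalised to no-compound and no-enzyme controls, IC50 from curve fit.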

Compound	pIC50
CC1(C)CN(c2nc(-c3ccnc(Nc4c(F)cccc4F)c3)nc3cncc(C4CC4)c23)CCN1 [Example 718, {4-[5-Cyclopropyl-4-(3,3-dimethyl-piperazin-1-yl)-pyrido[3,4-d]pyrimidin-2-yl]-pyridin-2-yl}-(2,6-difluoro-phenyl)-amine]	> 7.00
COc1cncc2nc(-c3ccncc3)nc(N3CC[C@H](N)C3)c12 [Example 53, (3S)-1-[5-methoxy-2-(pyridin-4-yl)-pyrido[3,4-d]-pyrimidin-4-yl]-pyrrolidin-3-amine]	6.00 to 7.00
COc1cccc(Nc2cc(-c3nc(N4CCNCC4)c4c(C5CC5)cncc4n3)ccn2)c1F [Example 589, [4-(5-Cyclopropyl-4-piperazin-1-yl-pyrido[3,4-d]pyrimidin-2-yl)-pyridin-2-yl]-(2-fluoro-3-methoxy-phenyl)-amine]	> 7.00
Fc1cc(F)c(F)c(Nc2cc(-c3nc(NC4CCNCC4)c4c(C5CC5)cncc4n3)ccn2)n1 [Example 2062, {5-Cyclopropyl-2-[2-(3,4,6-trifluoro-pyridin-2-ylamino)-pyridin-4-yl]-pyrido[3,4-d]pyrimidin-4-yl}-piperidin-4-yl-amine]	> 7.00
C[C@H]1CN(c2nc(-c3ccnc4[nH]c(C(C)(C)C)cc34)nc3cncc(C4CC4)c23)CCN1 [Example 2001, 2-(2-tert-Butyl-1H-pyrrolo[2,3-b]pyridin-4-yl)-5-cyclopropyl-4-((S)-3-methyl-piperazin-1-yl)-pyrido[3,4-d]pyrimidine]	> 7.00
COc1ccnc(Nc2cc(-c3nc(N4CCNCC4)c4c(OC)cncc4n3)ccn2)c1 [Example 401, [4-(5-Methoxy-4-piperazin-1-yl-pyrido[3,4-d]pyrimidin-2-yl)-pyridin-2-yl]-(4-methoxy-pyridin-2-yl)-amine]	> 7.00
Brc1cncc2nc(-c3ccncc3)nc(N3CCNCC3)c12 [Example 133, 1-[5-bromo-2-(pyridin-4-yl)pyrido[3,4-d]pyrimidin-4-yl]piperazine]	> 7.00
[4-(5-Cyclopropyl- 4-piperazin-1-yl- pyrido[3,4- d]pyrimidin-2-yl)- pyridin-2-yl]-(2,3- dichloro-phenyl)- amine [Example 543]	> 7.00
COc1ccc(F)c(Nc2cc(-c3nc(N4CCNCC4)c4c(C5CC5)cncc4n3)ccn2)c1 [Example 580, [4-(5-Cyclopropyl-4-piperazin-1-yl-pyrido[3,4-d]pyrimidin-2-yl)-pyridin-2-yl]-(2-fluoro-5-methoxy-phenyl)-amine]	> 7.00
COc1cncc2nc(-c3ccnc(NC(=O)Cc4ccc(Cl)cc4)c3)nc(N3CCNCC3)c12 [Example 369, 2-(4-Chloro-phenyl)-N-[4-(5-methoxy-4-piperazin-1-yl-pyrido[3,4-d]pyrimidin-2-yl)-pyridin-2-yl]-acetamide]	> 7.00
COc1cncc2nc(-c3ccncc3)nc(N3CCNC(CF)C3)c12 (stereo not shown) [Example 54, 3-(fluoromethyl)-1-[5-methoxy-2-(pyridin-4-yl)-pyrido[3,4-d]-pyrimidin-4-yl]-piperazine]	5.00 to 6.00
OCC1CN(c2nc(-c3ccncc3)nc3c(Cl)nccc23)C1 [Example 73, {1-[8-chloro-2-(pyridin-4-yl)-pyrido[3,4-d]-pyrimidin-4-yl]-azetidin-3-yl}-methanol]	4.40 to 5.00
CNC(=O)C1CCN(c2nc(-c3ccnc(Nc4c(F)cccc4F)c3)nc3cncc(C4CC4)c23)C1 (stereo not shown) [Example 726, 1-{5-Cyclopropyl-2-[2-(2,6-difluoro-phenylamino)-pyridin-4-yl]-pyrido[3,4-d]pyrimidin-4-yl}-pyrrolidine-3-carboxylic acid methylamide]	6.00 to 7.00
COc1cncc2nc(-c3ccnc(NC4CCCCC4)c3)nc(N3CCNCC3)c12 [Example 242, Cyclohexyl-[4-(5-methoxy-4-piperazin-1-yl-pyrido[3,4-d]pyrimidin-2-yl)-pyridin-2-yl]-amine]	> 7.00
COc1cncc2nc(-c3ccnc(Nc4ncccc4F)c3)nc(N3CCNCC3)c12 [Example 411, (3-Fluoro-pyridin-2-yl)-[4-(5-methoxy-4-piperazin-1-yl-pyrido[3,4-d]pyrimidin-2-yl)-pyridin-2-yl]-amine]	> 7.00
Cc1cccc(Cl)c1Nc1cc(-c2nc(N3CCNCC3)c3c(C4CC4)cncc3n2)ccn1 [Example 527, (2-Chloro-6-methyl-phenyl)-[4-(5-cyclopropyl-4-piperazin-1-yl-pyrido[3,4-d]pyrimidin-2-yl)-pyridin-2-yl]-amine]	> 7.00

Compound	pIC50
Fc1ccnc(Nc2cc(-c3nc(N4CCNCC4)c4c(C5CC5)cncc4n3)ccn2)c1 [Example 756, [4-(5-Cyclopropyl-4-piperazin-1-yl-pyrido[3,4-d]pyrimidin-2-yl)-pyridin-2-yl]-(4-fluoro-pyridin-2-yl)-amine]	> 7.00
Cn1cc(-c2ccc(Nc3cc(-c4nc(N5CCNCC5)c5c(C6CC6)cncc5n4)ccn3)c(F)c2)cn1 [Example 2130, [4-(5-Cyclopropyl-4-piperazin-1-yl-pyrido[3,4-d]pyrimidin-2-yl)-pyridin-2-yl]-[2-fluoro-4-(1-methyl-1H-pyrazol-4-yl)-phenyl]-amine]	> 7.00
COc1cncc2nc(-c3ccnc(Nc4ccc(F)cc4)c3)nc(N[C@@H]3CCNC3)c12 [Example 230, {2-[2-(4-Fluoro-phenyl-amino)-pyridin-4-yl]-5-methoxy-pyrido[3,4-d]pyrimidin-4-yl}-(R)-pyrrolidin-3-yl-amine]	> 7.00
COc1cncc2nc(-c3ccnc(Nc4ccc(-c5ccccc5)nc4)c3)nc(N3CCNCC3)c12 [Example 392, [4-(5-Methoxy-4-piperazin-1-yl-pyrido[3,4-d]pyrimidin-2-yl)-pyridin-2-yl]-(6-phenyl-pyridin-3-yl)-amine]	> 7.00
COc1cncc2nc(-c3ccnc(Nc4cncc(C)c4)c3)nc(N3CCNCC3)c12 [Example 416, [4-(5-Methoxy-4-piperazin-1-yl-pyrido[3,4-d]pyrimidin-2-yl)-pyridin-2-yl]-(5-methyl-pyridin-3-yl)-amine]	> 7.00
Cc1cccc(Nc2cc(-c3nc(N4CCNCC4)c4c(C5CC5)cncc4n3)ccn2)c1C [Example 540, [4-(5-Cyclopropyl-4-piperazin-1-yl-pyrido[3,4-d]pyrimidin-2-yl)-pyridin-2-yl]-(2,3-dimethyl-phenyl)-amine]	> 7.00
c1cc(C2CC2)c2nc(Nc3cc(-c4nc(N5CCNCC5)c5c(C6CC6)cncc5n4)ccn3)nn2c1 [Example 846, [4-(5-Cyclopropyl-4-piperazin-1-yl-pyrido[3,4-d]pyrimidin-2-yl)-pyridin-2-yl]-(8-cyclopropyl-[1,2,4]triazolo[1,5-a]pyridin-2-yl)-amine]	> 7.00
CN(C)CCCCNc1nc(-c2ccnc(Nc3c(F)cccc3F)c2)nc2cncc(C3CC3)c12 [Example 803, N-{5-Cyclopropyl-2-[2-(2,6-difluoro-phenylamino)-pyridin-4-yl]-pyrido[3,4-d]pyrimidin-4-yl}-N′,N′-dimethyl-butane-1,4-diamine]	6.00 to 7.00
Cc1nc(Nc2cc(-c3nc(N4CCNCC4)c4c(C5CC5)cncc4n3)ccn2)oc1C [Example 272, [4-(5-Cyclopropyl-4-piperazin-1-yl-pyrido[3,4-d]pyrimidin-2-yl)-pyridin-2-yl]-(4,5-dimethyl-oxazol-2-yl)-amine]	> 7.00
N[C@@H](CNc1nc(-c2ccncc2)nc2c(-c3ccccn3)nccc12)Cc1ccccc1 [Example 122, (R)-3-Phenyl-N^1-(2-pyridin-4-yl-8-pyridin-2-yl-pyrido[3,4-d]pyrimidin-4-yl)-propane-1,2-diamine]	6.00 to 7.00
C[C@H](Nc1cc(-c2nc(N3CCNCC3)c3c(C4CC4)cncc3n2)ccn1)c1ccccc1 [Example 587, [4-(5-Cyclopropyl-4-piperazin-1-yl-pyrido[3,4-d]pyrimidin-2-yl)-pyridin-2-yl]-((S)-1-phenyl-ethyl)-amine]	> 7.00
COc1cncc2nc(N3CCOCC3)nc(N3CCC[C@H](Nc4ccccc4)C3)c12 [Example 1007, [(S)-1-(5-Methoxy-2-morpholin-4-yl-pyrido[3,4-d]pyrimidin-4-yl)-piperidin-3-yl]-phenyl-amine]	5.00 to 6.00
COc1cncc2nc(-c3ccncc3)nc(N3CCOC(Cc4ccccc4)C3)c12 (stereo not shown) [Example 72, 2-benzyl-4-[5-methoxy-2-(pyridin-4-yl)pyrido[3,4-d]-pyrimidin-4-yl]-morpholine]	5.00 to 6.00
Cc1ccc(Nc2cc(-c3nc(N4CCNCC4)c4c(C5CC5)cncc4n3)ccn2)c(C)c1 [Example 573, [4-(5-Cyclopropyl-4-piperazin-1-yl-pyrido[3,4-d]pyrimidin-2-yl)-pyridin-2-yl]-(2,4-dimethyl-phenyl)-amine]	> 7.00
COc1cccc(Nc2cc(-c3nc(N4CCNCC4)c4c(C5CC5)cncc4n3)ccn2)c1 [Example 571, [4-(5-Cyclopropyl-4-piperazin-1-yl-pyrido[3,4-d]pyrimidin-2-yl)-pyridin-2-yl]-(3-methoxy-phenyl)-amine]	> 7.00
